In US11142515B2, “Pyrazolyl-ureas as kinase inhibitors” (RESPIVERT LIMITED, priority 2014, dated 2021):

Legend:
[1] = biological target: T1, GSK 3α enzyme isoform (Homo sapiens, UniProt P49840); test: GSK 3α enzyme inhibition (Z-LYTE FRET); format: biochemical; details: Table 2A; read-out: IC50 Values for Enzyme Inhibition GSK3α
T1 construct: purchased Life Technologies
Outline: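 Z-LYTE FRET kinase assay: GSK3α protein (500 ng/mL stock) preincubated with compound (0.0012–40 μg/mL stocks) for 2 h at RT. FRET peptide (8 μM stock) and ATP (40 μM stock) added for 1 h at RT, then protease development for 1 h. Phosphorylation taken from the coumarin/fluorescein emission ratio.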

[2] = test system: d-U937 cells; test: Cell viability: MTT assay in differentiated U937 cells; format: cell-based, human; details: 10 μg/mL
Outline: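 Differentiated U937 cells exposed to compound at a final 10 μg/mL, either 4 h in 5% FCS RPMI1640 or 24 h in 10% FCS RPMI1640. MTT added for 1 h, formazan dissolved in DMSO, absorbance read at 550 nm; % viability loss relative to 0.5% DMSO vehicle, with increases shown as negative values.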

[3] = test system: IL-8 release in d-U937 cells; test: LPS-induced IL-8 release in d-U937 cells; format: cell-based; details: Homo sapiens, dU937, LPS 0.1 μg/mL 4 h
Outline: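 U937 human monocytic cells were differentiated to macrophage-like cells with PMA (100-200 ng/mL) for 48 to 72 h, pre-treated with compound for 2 h, then challenged with E. coli O111:B4 LPS (0.1 μg/mL) for 4 h. TNFα and IL-8 in supernatants were measured by sandwich ELISA; REC50 came from concentration-response curves.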

[4] = biological target: T2, p38MAPKγ (MAPK12) (Homo sapiens, UniProt P53778); test: p38 MAPKγ enzyme inhibition (Z-LYTE FRET); format: biochemical; details: Table 2A; read-out: IC50 Values for Enzyme Inhibition p38 MAPKγ
T2 construct: purchased Life Technologies
T2 sequence (P53778 1-367): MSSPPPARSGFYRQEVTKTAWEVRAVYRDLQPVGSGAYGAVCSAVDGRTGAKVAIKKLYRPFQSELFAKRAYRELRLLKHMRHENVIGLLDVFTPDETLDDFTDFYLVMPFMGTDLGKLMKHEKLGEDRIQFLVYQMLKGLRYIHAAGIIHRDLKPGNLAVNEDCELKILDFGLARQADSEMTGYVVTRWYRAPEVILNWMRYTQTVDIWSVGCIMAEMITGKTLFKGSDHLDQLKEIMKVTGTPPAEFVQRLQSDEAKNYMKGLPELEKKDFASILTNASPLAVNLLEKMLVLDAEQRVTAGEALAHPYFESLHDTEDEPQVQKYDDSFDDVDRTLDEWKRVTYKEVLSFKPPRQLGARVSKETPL
Outline: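 Z-LYTE read-out: after 1 h protease development, only non-phosphorylated peptide is cleaved, and the donor/acceptor (coumarin/fluorescein) ratio reports phosphorylation. Beforehand, enzyme and compound (stock concentrations 0.0012–40 μg/mL) were preincubated 2 h at RT, then the kinase reaction ran 1 h at RT with peptide and ATP (8 μM and 400 μM stocks).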

T1 sequence (P49840 whole entry, canonical isoform): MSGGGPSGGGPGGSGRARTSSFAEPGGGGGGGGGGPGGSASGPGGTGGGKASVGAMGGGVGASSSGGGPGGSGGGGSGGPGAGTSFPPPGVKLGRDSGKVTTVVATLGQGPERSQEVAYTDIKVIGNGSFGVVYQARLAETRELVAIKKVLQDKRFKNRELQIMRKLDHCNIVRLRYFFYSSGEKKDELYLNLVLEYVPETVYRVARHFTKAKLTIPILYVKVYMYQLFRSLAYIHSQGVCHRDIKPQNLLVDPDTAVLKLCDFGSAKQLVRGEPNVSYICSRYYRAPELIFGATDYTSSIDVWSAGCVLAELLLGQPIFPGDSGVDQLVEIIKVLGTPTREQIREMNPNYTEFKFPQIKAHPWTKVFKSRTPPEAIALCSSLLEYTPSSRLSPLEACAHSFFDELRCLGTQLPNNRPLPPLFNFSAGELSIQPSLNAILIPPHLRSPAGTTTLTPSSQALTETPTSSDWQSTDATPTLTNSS

Structure (SMILES)	IC50 [1] [nM]	IC50 [3] [nM]	IC50 [4] [nM]	MTT Assay Cell viability at time point indicated in d-U937 Cells, 4 h [2]	MTT Assay Cell viability at time point indicated in d-U937 Cells, 24 h [2]
COCCNC(=O)c1cnc(Nc2cc(COc3ccc(NC(=O)Nc4cc(C(C)(C)C)nn4-c4ccc(C)cc4)c4ccccc34)ccn2)cn1 [Example 3]	> 14300	8.8	222	− (−ve and +ve indicate the value is below and above, respectively, the no significant effect threshold defined as 30% inhibition at 10 μg/mL at the time point indicated)	− (−ve and +ve indicate the value is below and above, respectively, the no significant effect threshold defined as 30% inhibition at 10 μg/mL at the time point indicated)
COc1ccc(-n2nc(C(C)(C)C)cc2NC(=O)Nc2ccc(OCc3ccnc(Nc4cnccn4)c3)c3ccccc23)cn1 [Example 12]	> 16200	9.3	198	− (−ve and +ve indicate the value is below and above, respectively, the no significant effect threshold defined as 30% inhibition at 10 μg/mL at the time point indicated)	− (−ve and +ve indicate the value is below and above, respectively, the no significant effect threshold defined as 30% inhibition at 10 μg/mL at the time point indicated)
Cc1ccc(-n2nc(C(C)(C)C)cc2NC(=O)Nc2ccc(OCc3ccnc(Nc4cnc(CO)cn4)c3)c3ccccc23)cc1 [Example 10, 1-(3-(tert-Butyl)-1-(p-tolyl)-1H-pyrazol-5-yl)-3-(4-((2-((5-(hydroxymethyl)pyrazin-2-yl)amino)pyridin-4-yl)methoxy)naphthalen-1-yl)urea]	> 15900	15.3	31	− (−ve and +ve indicate the value is below and above, respectively, the no significant effect threshold defined as 30% inhibition at 10 μg/mL at the time point indicated)	− (−ve and +ve indicate the value is below and above, respectively, the no significant effect threshold defined as 30% inhibition at 10 μg/mL at the time point indicated)
CCc1ccc(-n2nc(C(C)(C)C)cc2NC(=O)Nc2ccc(OCc3ccnc(Nc4cnccn4)c3)c3ccccc23)cc1 [Example 42]	6940	18.3	521	− (−ve and +ve indicate the value is below and above, respectively, the no significant effect threshold defined as 30% inhibition at 10 μg/mL at the time point indicated)	− (−ve and +ve indicate the value is below and above, respectively, the no significant effect threshold defined as 30% inhibition at 10 μg/mL at the time point indicated)
CC(C)(C)c1cc(NC(=O)Nc2ccc(OCc3ccnc(Nc4cnccn4)c3)c3ccccc23)n(-c2cccc(Cl)c2)n1 [Example 50]	7080	30.3	356	− (−ve and +ve indicate the value is below and above, respectively, the no significant effect threshold defined as 30% inhibition at 10 μg/mL at the time point indicated)	− (−ve and +ve indicate the value is below and above, respectively, the no significant effect threshold defined as 30% inhibition at 10 μg/mL at the time point indicated)
Cc1ccc(-n2nc(C(C)(C)C)cc2NC(=O)Nc2ccc(OCc3ccnc(Nc4cnc(C(=O)N5CCCC5)cn4)c3)c3ccccc23)cc1 [Example 36]	> 13800	2.8	1070	− (−ve and +ve indicate the value is below and above, respectively, the no significant effect threshold defined as 30% inhibition at 10 μg/mL at the time point indicated)	− (−ve and +ve indicate the value is below and above, respectively, the no significant effect threshold defined as 30% inhibition at 10 μg/mL at the time point indicated)
COCCNC(=O)c1cnc(Nc2cc(COc3ccc(NC(=O)Nc4cc(C(C)(C)C)nn4-c4csc(C)c4)c4ccccc34)ccn2)cn1 [Example 44]	> 14200	52.2	454	− (−ve and +ve indicate the value is below and above, respectively, the no significant effect threshold defined as 30% inhibition at 10 μg/mL at the time point indicated)	+ (−ve and +ve indicate the value is below and above, respectively, the no significant effect threshold defined as 30% inhibition at 10 μg/mL at the time point indicated)
COc1ccc(-n2nc(C(C)(C)C)cc2NC(=O)Nc2ccc(OCc3ccnc(Nc4cnccn4)c3)c3ccccc23)cc1C [Example 39]	> 15900	12.8	310	− (−ve and +ve indicate the value is below and above, respectively, the no significant effect threshold defined as 30% inhibition at 10 μg/mL at the time point indicated)	− (−ve and +ve indicate the value is below and above, respectively, the no significant effect threshold defined as 30% inhibition at 10 μg/mL at the time point indicated)

The next molecules have a lower IC50 [1] than those just listed; values first:

IC50 [1] [nM]	IC50 [3] [nM]	IC50 [4] [nM]	Structure (SMILES)	MTT Assay Cell viability at time point indicated in d-U937 Cells, 4 h [2]	MTT Assay Cell viability at time point indicated in d-U937 Cells, 24 h [2]
5990	9.6	> 16300	COc1ccc(-n2nc(C(C)(C)C)cc2NC(=O)Nc2ccc(OCc3ccnc(Nc4cnccn4)c3)c3ccccc23)cc1 [Example 38]	− (−ve and +ve indicate the value is below and above, respectively, the no significant effect threshold defined as 30% inhibition at 10 μg/mL at the time point indicated)	− (−ve and +ve indicate the value is below and above, respectively, the no significant effect threshold defined as 30% inhibition at 10 μg/mL at the time point indicated)
5960	42.4	53	CNC(=O)Cc1cnc(Nc2cc(COc3ccc(NC(=O)Nc4cc(C(C)(C)C)nn4-c4ccc(C)cc4)c4ccccc34)ccn2)cn1 [Example 33]	− (−ve and +ve indicate the value is below and above, respectively, the no significant effect threshold defined as 30% inhibition at 10 μg/mL at the time point indicated)	− (−ve and +ve indicate the value is below and above, respectively, the no significant effect threshold defined as 30% inhibition at 10 μg/mL at the time point indicated)
4210	16.7	1230	Cc1ccc(-n2nc(C(C)(C)C)cc2NC(=O)Nc2ccc(OCc3ccnc(Nc4cncc(C5CCCC5)n4)c3)c3ccccc23)cc1 [Example 48]	− (−ve and +ve indicate the value is below and above, respectively, the no significant effect threshold defined as 30% inhibition at 10 μg/mL at the time point indicated)	− (−ve and +ve indicate the value is below and above, respectively, the no significant effect threshold defined as 30% inhibition at 10 μg/mL at the time point indicated)
3650	1.9	160	Cc1ccc(-n2nc(C(C)(C)C)cc2NC(=O)Nc2ccc(OCc3ccnc(Nc4cncc(C5CC5)n4)c3)c3ccccc23)cc1 [Example 15]	− (−ve and +ve indicate the value is below and above, respectively, the no significant effect threshold defined as 30% inhibition at 10 μg/mL at the time point indicated)	− (−ve and +ve indicate the value is below and above, respectively, the no significant effect threshold defined as 30% inhibition at 10 μg/mL at the time point indicated)
1320	15	37	Cc1ccc(-n2nc(C(C)(C)C)cc2NC(=O)Nc2ccc(OCc3ccnc(Nc4cncc(CC(N)=O)n4)c3)c3ccccc23)cc1 [Example 32]	− (−ve and +ve indicate the value is below and above, respectively, the no significant effect threshold defined as 30% inhibition at 10 μg/mL at the time point indicated)	− (−ve and +ve indicate the value is below and above, respectively, the no significant effect threshold defined as 30% inhibition at 10 μg/mL at the time point indicated)
